According to patent publication US20250092395A1, “A GLUN2D INHIBITOR FOR USE IN THE TREATMENT OR RELAPSE PREVENTION OF A DEPRESSIVE EPISODE” (priority 2022, published 2025):
“Also recorded” adds a separate entry of the source. Counter-ions that a name gives are not always drawn.

What was measured:
[1] = system: SOM-dependent feedback loop, CA1 PCs; experiment: Feedback loop-activating protocol (FLAP) in CA1 PCs; assay type: cell-based, mice; conditions: for synaptic AP probability (conversion of EPSPs to APs) in FLAP: 10 μM washed in, 10-30 min vs baseline; for EPSP amplitude in the FLAP: wash-in of 10 μM after 10 min baseline
Experimental: A 300 ms depolarizing current between +100 and +[…] was injected via the patch pipette into a PC to elicit a train of 5-10 APs. After an interval of 600 ms, one EPSP (5-10 mV amplitude) was elicited by Schaffer collateral stimulation. This pattern was continuously repeated at a frequency of 0.2 Hz. Substances were added by bath application after a stable 10 min baseline recording for an additional 20 min. For data analysis the maximum EPSP amplitudes from minutes 0-10 were averaged and compared to averaged maximum EPSP amplitudes from minutes 20-30.
The slope of the EPSP rise at 20% to 40% of its maximal amplitude, at which point an approximately linear increase in its voltage could be assumed, was fitted with Fitmaster software (HEKA, Germany). We analyzed 20 EPSPs before and 20 EPSPs 25-30 minutes after NAB-14 wash-in in the FLAP protocol for each experiment. The coefficient of variation (CV) is the standard deviation of the EPSP slopes divided by the mean. The inverse square of the CV of the postwash-in slopes was divided by the inverse square of the prewash-in slopes and plotted against the corresponding normalized slopes. Pre- and postwash-in measurements from a single experiment are connected by a line. In a standard quantal model for synaptic transmission, synaptic responses are affected either by presynaptic changes in the number of release sites and/or the probability of release or by modifications of the postsynaptic response to a single […]. A change in the ratio of CV-2 reflects a presynaptic action, whereas horizontal lines in the CV-2 plot indicate a change in postsynaptic responsiveness.

[2] = system: NMDAR currents in CA1 pyramidal cells; experiment: NMDAR currents in voltage-clamp recordings, CA1 pyramidal cells; assay type: cell-based, mice; conditions: +40 mV, CNQX, bath application 10 μM
Experimental: (§1) After 20 min resting time at 35° C., slices were kept at room temperature in aCSF and transferred into the recording chamber (volume approx. 2-3 ml) and continuously superfused with aCSF (rate approx. 5-10 ml/min-). Differential interference contrast video microscopy was used to identify location of CA1 pyramidal neurons (Zeiss Axioskop 2 FS plus, Zeiss Microscopy, Germany). Beside optical identification neurons were classified according to their characteristic firing frequency adaptation to long depolarising current pulses. Borosilicate glass tubes (2.0 mm outer diameter, 0.5 mm wall thickness; Hilgenberg, Germany) were used to pull patch pipettes. Pipettes with a resistance of 5-10 MΩ were used and series resistance of 10-50 MΩ was compensated by bridge balance. Patch pipettes were filled with an internal solution containing (in mM) for EPSP-measurements: 132K-gluconate, 20KCL, 2MgCl2, 10Hepes, 0.1EGTA, 4 Na2ATP, 0.3NaGTP. PH was adjusted to 7.2 with KOH. For current measurements: 135Csgluconate, 2CsCl, 5 QX314, 10 Hepes, 10EGTA, 2MgCl2, 2Na2ATP, 2TEACI, pH was adjusted to 7.2 with HCl. Osmolarity (280-300 mosmol/1) was controlled at the beginning of each experimental day with Osmomat (Gonotec GmbH, Germany).

[3] = system: CA3-CA1 synapse in hippocampal brain slices of CDM mice; experiment: aLTP/aLTD inducibility in hippocampal brain slices of CDM mice after in vivo treatment; conditions: for stress-induced LTP blockade, reversal: NAB-14 in vivo
Experimental: Animals were preoxygenated in a 100% oxygen atmosphere for 5 min before cervical dislocation and decapitated according to national and institutional guidelines. Transverse 300 […] were cut from hippocampus with a Vibratome (VT1200, Leica, Japan). Slices were prepared in artificial cerebrospinal fluid (ACSF) containing (in mmol/I): 125 NaCl, 25 NaHCO3, 1.25 NaH2PO4, 2.5 KCL, 1 MgCl2, 27 Glucose, 2 CaCl2) bubbled with carbogen (95% O2, 5% CO2).
as §1
A stimulation pipette (patch pipette with 1-3 MΩ resistance when filled with internal solution) was placed superficially in the stratum radiatum of the CA1 region in approximately […] distance to the pyramidal cell layer. Subthreshold excitatory postsynaptic potentials (EPSPs, 2 7 mV) were evoked by Schaffer collateral stimulation with voltage pulses of 10-80 V (frequency of 0.1 Hz, duration of 200 μs) using a stimulus isolator (Model 2100 Isolated pulse stimulator, Carlsborg, U.S.A.). Resting membrane potentials were between −75 and −65 mV and holding potential was −70 mV. 50 ms current test pulses (leading to 5-10 mV hyperpolarization) were applied to control input and series resistances after every 10th EPSP. EPSPs were combined with APs triggered by short (3 ms) current application of 900 pA via the patch-clamp electrode. EPC-10 amplifiers (HEKA, Germany) were used and signals were filtered at 5 kHz. Patchmaster NEXT software (Version 1.2, HEKA, Germany) was used for data acquisition and experiments were performed at room temperature.
aLTP: Five EPSPs and five postsynaptic APs were paired at 100 Hz with a 5 ms delay (AP after EPSP). Five of these bursts of synchronized EPSP→AP pairs were applied at theta frequency (5 Hz), followed by an interval of 10 sec and 4 more theta blocks, resulting in 125 EPSP/AP pairings.
aLTD: 360 postsynaptic APs were pared with 360 EPSPs with a delay of 20-30 ms between each AP/EPSP pairing at a frequency of 1 Hz. 1 Hz LTD: 600 EPSPs were elicited at a frequency of 1 Hz whilst CA1 pyramidal cell membrane potential was hold at −60 mV.
Long-term plasticity or molecular analyses were assessed as described above after the induction phase of the CDM and the specific treatment.
EPSP measurement: For baseline measurement, the mean amplitudes of 30 consecutive EPSPs before the induction protocol were calculated. 25 min after LTP induction the mean amplitude of 30 consecutive EPSPs was calculated and compared to the baseline of the same measurement. Changes of EPSP amplitudes were expressed as percentages of the baseline measurement and analysed for each experimental group applying a two-tailed Wilcoxon test. The differences between separate experimental groups were assessed using the Mann-Whitney test, not assuming normal distribution. […]

[4] = system: NMDAR currents in somatostatin positive Interneurons (SOM); experiment: NMDAR currents in voltage-clamp recordings, SOM interneurons; conditions: +40 mV, CNQX, bath application 10 μM
[5] = R,S-ketamine injected shortly before each swim session in the CDM

`CCN(CC)C(=O)Oc1ccc(C(=O)Nc2cccc3cc[nH]c23)cc1` [NAB-14] was tested, and the “synaptic AP probability (conversion of EPSPs to APs) in FLAP” value [1] was “significant increase in synaptic AP probability”, the “PC excitability: number of APs during the burst and input resistance (Rm)” value ([1]; NAB-14 10 μM in FLAP) was “did not significantly change; also recorded: no significant alteration in AP number; also recorded: no significant change in postsynaptic input resistance” and the “coefficient of variation (CV) analysis of EPSP slopes before and after wash-in” value ([1]; NAB-14 wash-in in FLAP) was “consistent with a postsynaptic mechanism”. The “EPSP amplitude in the FLAP” value [1] was “significantly increased; also recorded: increased significantly”, the “amplitude of NMDAR currents in CA1 pyramidal cells” value (“amplitude … in CA1 pyramidal cells” below) [2] was “no relevant NMDAR reduction” and the “stress-induced LTP blockade, reversal” value ([3]; CDM mice, high dose: 10 mg/kg, 10 μM, 10 mg/kg) was “completely; also recorded: fully reversed”. The “stress-induced LTP blockade, reversal” value ([3]; CDM mice, high dose: 10 mg/kg, 10 μM, listed as NAB, 10 mg/kg) was “fully rehabilitated LTP inducibility”, the “stress-induced LTP blockade, reversal” value ([3]; CDM mice, low dose: 5 mg/kg, 5 μM) was “partially” and the “EPSP slope and decay changes found in CDM” value ([3]; CDM mice, previous NAB-14 treatment) was “effectively be reversed; also recorded: completely reversing slope increase and decay changes”. For the same molecule, the “amplitude of NMDAR currents in SOM interneurons” value (from here on “amplitude … in SOM interneurons”) [4] was “significantly reduced; also recorded: reduce the amplitude of NMDAR currents in SOMs”.

`CNC1(c2ccccc2Cl)CCCCC1=O` (stereo not drawn) [R,S-ketamine, R,S-Ketamine hydrochloride] was tested, and the “synaptic AP probability (conversion of EPSPs to APs) in FLAP” value ([1]; hydrochloride) was “higher percentage of APs; also recorded: significant increase in synaptic AP probability”, the “EPSP amplitude in the FLAP” value ([1]; hydrochloride) was “dramatically increased” and the “EPSP amplitude in the FLAP” value ([1]; listed as ketamine, hydrochloride) was “increased significantly”. For the same molecule, the “amplitude … in CA1 pyramidal cells” value ([2]; hydrochloride) was “reduced the amplitude”, the “amplitude … in CA1 pyramidal cells” value ([2]; listed as R,S-Ketamine, hydrochloride) was “significantly blocking NMDAR currents in CA1 cells” and the “stress-induced facilitation of LTD (aLTD, EPSP amplitude min 25 to 30)” value ([3]; CDM mice, R,S-ketamine injection i.p. after CDM induction, hydrochloride) was “fully restored; also recorded: reversed this inducibility”. For the same molecule, the “stress-induced blockade of LTP inducibility (aLTP, EPSP amplitude min 25 to 30)” value ([3]; CDM mice, single R,S-ketamine injection i.p. after CDM induction, hydrochloride) was “fully restored; also recorded: completely reestablishing stress-induced changes”, the “stress-induced aLTD facilitation” value [3, 5] was “weaker effect” and the “stress-induced aLTP blockade” value [3, 5] was “prevented the stress-induced aLTP blockade”. The “amplitude … in SOM interneurons” value ([4]; hydrochloride) was “significantly stronger than in CA1 pyramidal cells; also recorded: significantly more pronounced in SOMs than in PCs” and the “amplitude … in SOM interneurons” value ([4]; listed as Ketamine, hydrochloride) was “significantly more pronounced inhibitory effect”.
